This is an account of results in patent US20120245199A1, “[4 [4-(AMINOMETHYL-2-FLUORO-PHENYL)-PIPERIDIN-1-YL]-(1H-PYRROLO-PYRIDIN-YL)-METHANONES AND SYNTHESIS THEREOF” (SANOFI, priority 2009, published 2012).

“And” between values parts separate entries of the source, which are not always exact repeats. Equal values may be shown once. Where a name gives a salt, the structure may show the parent alone.

Data set [1] addresses T1, recombinant human beta tryptase (Homo sapiens, UniProt Q15661).
T1 construct: host or cells: yeast cells
As to the kind of experiment: beta-Tryptase inhibition, chromogenic enzyme assay (S2366 substrate). As to conditions: Ki calculated from IC50: Ki=IC50/(1+[Substrate]/Km), 0.5 mM S2366, room temperature. The class given is biochemical. An excerpt:
Inhibition of this catalytic activity may be measured by the in vitro enzyme assay and the cellular assay.
Tryptase inhibition activity is confirmed using either isolated human lung tryptase or recombinant human beta tryptase expressed in yeast cells. Essentially equivalent results are obtained using isolated native enzyme or the expressed enzyme. The assay procedure employs a 96 well microplate (Costar 3590) using L-pyroglutamyl-L-prolyl-L-arginine-para-nitroanilide (S2366: Quadratech) as substrate (essentially as described by McEuen et. al. Biochem Pharm, 1996, 52, pages 331-340). Assays are performed at room temperature using 0.5 mM substrate (2×Km) and the microplate is read on a microplate reader (Beckman Biomek Plate reader) at 405 nm wavelength.
S2366 (Stock solutions of 2.5 mM).
Purified recombinant beta Tryptase Stocks of 310 μg/mL.
• Add 60 μL of diluted substrate (final concentration of 500 μM in assay buffer) to each well • Add compound in duplicates, final concentration of 20 μM, volume 20 μL • Add enzyme at a final concentration of 50 ng/mL in a volume of 20 μL • Total volume for each well is 100 μL • Agitate briefly to mix and incubate at room temp in the dark for 30 minutes • Read absorbencies at […] Each plate has the following controls: • Totals: 60 μL of substrate, 20 μL of buffer (with 0.2% final concentration of DMSO), 20 μL of enzyme • Non-specific: 60 μL of substrate, 40 μL of buffer (with 0.2% DMSO) • Totals: 60 μL of substrate, 20 μL of buffer (No DMSO), 20 μL of enzyme • Non-specific: 60 μL of substrate, 40 μL of buffer (No DMSO)
The protocol is essentially the same as above except that the compound is added in duplicates at the following final concentrations: 0.01, 0.03, 0.1, 0.3, 1, 3, 10 μM (All dilutions carried out manually). For every assay, whether single point or IC50 determination, a standard compound is used to derive IC50 for comparison. From the IC50 value, the Ki can be calculated using the following formula: Ki=IC50/(1+[Substrate]/Km).

T1 sequence (Q15661 31-275): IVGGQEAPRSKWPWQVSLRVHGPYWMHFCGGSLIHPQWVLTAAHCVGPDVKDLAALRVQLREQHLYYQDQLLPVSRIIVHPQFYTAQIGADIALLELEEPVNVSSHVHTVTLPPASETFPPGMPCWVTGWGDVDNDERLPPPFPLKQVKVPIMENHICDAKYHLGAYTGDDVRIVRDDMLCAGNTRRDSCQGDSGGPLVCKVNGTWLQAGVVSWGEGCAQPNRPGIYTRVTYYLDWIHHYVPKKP

The term Ki denotes the equilibrium dissociation constant of an inhibitor or competing ligand from its target. Regarding `COCCn1cc(C(=O)N2CCC(c3cc(CN)ccc3F)CC2)c2ccnc(C)c21` [Example 14, [4-(5-Aminomethyl-2-fluoro-phenyl)-piperidin-1-yl]-[1-(2-methoxy-ethyl)-7-methyl-1H-pyrrolo[2,3-c]pyridin-3-yl]-methanone], the Ki in data set [1] was 0.025 µM. On to `COCCn1cc(C(=O)N2CCC(c3cc(CN)ccc3F)CC2)c2nccc(C)c21` [Example 12, [4-(5-Aminomethyl-2-fluoro-phenyl)-piperidin-1-yl]-[1-(2-methoxy-ethyl)-7-methyl-1H-pyrrolo[3,2-b]pyridin-3-yl]-methanone dihydrochloride], for which, in data set [1], the Ki was 0.023 µM and 0.013 µM. With `COCCn1cc(C(=O)N2CCC(c3cc(CN)ccc3F)CC2)c2ccnc(Cl)c21` [Example 13, [4-(5-Aminomethyl-2-fluoro-phenyl)-piperidin-1-yl]-[7-chloro-1-(2-methoxy-ethyl)-1H-pyrrolo[2,3-c]pyridin-3-yl]-methanone dihydrochloride], the Ki in data set [1] was 0.025 µM. As to `COCCn1cc(C(=O)N2CCC(c3cc(CN)ccc3F)CC2)c2cnccc21` [Example 10, [4-(5-Aminomethyl-2-fluoro-phenyl)-piperidin-1-yl]-[1-(2-methoxy-ethyl)-1H-pyrrolo[3,2-c]pyridin-3-yl]-methanone dihydrochloride], the Ki in data set [1] is 0.18 µM. For `COCCn1cc(C(=O)N2CCC(c3cc(CN)ccc3F)CC2)c2cccnc21` [Example 20, [4-(5-Aminomethyl-2-fluoro-phenyl)-piperidin-1-yl]-[1-(2-methoxy-ethyl)-1H-pyrrolo[2,3-b]pyridin-3-yl]-methanone dihydrochloride], the Ki in data set [1] was 0.092 µM.

`COCCn1cc(C(=O)N2CCC(c3cc(CN)ccc3F)CC2)c2ccncc21` [Example 9, [4-(5-Aminomethyl-2-fluoro-phenyl)-piperidin-1-yl]-[1-(2-methoxy-ethyl)-1H-pyrrolo[2,3-c]pyridin-3-yl]-methanone dihydrochloride]: in data set [1], the Ki was 0.035 µM. `COCCOc1nccc2c(C(=O)N3CCC(c4cc(CN)ccc4F)CC3)cn(CCOC)c12` [Example 11, [4-(5-Aminomethyl-2-fluoro-phenyl)-piperidin-1-yl]-[7-(2-methoxy-ethoxy)-1-(2-methoxy-ethyl)-1H-pyrrolo[2,3-c]pyridin-3-yl]-methanone dihydrochloride]: the inhibition constant (Ki) in data set [1] was 0.166 µM. The same measure, in the same setting: under `COCCn1c(C(=O)N2CCC(c3cccc(CN)c3)CC2)cc2cccnc21` [Example 3, [4-(3-Aminomethyl-phenyl)-piperidin-1-yl]-[1-(2-methoxy-ethyl)-1H-pyrrolo[2,3-b]pyridin-2-yl]-methanone dihydrohydrochloride, dihydrochloride] stands 0.915 µM. As a reminder, the melting point is the temperature, or range, at which the solid turns liquid. In turn, `COCCn1cc(C(=O)N2CCC(c3cc(CN)ccc3F)CC2)c2ccnc(Cl)c21` (as salt: hydrochloride) [Example 13, [4-(5-Aminomethyl-2-fluoro-phenyl)-piperidin-1-yl]-[7-chloro-1-(2-methoxy-ethyl)-1H-pyrrolo[2,3-c]pyridin-3-yl]-methanone dihydrochloride] had a melting point of 163 to 167 °C.

As for `NCc1ccc(F)c(C2CCN(C(=O)c3cn(CCN4CCCC4)c4cccnc34)CC2)c1` [Example 18, [4-(5-Aminomethyl-2-fluoro-phenyl)-piperidin-1-yl]-[1-(2-pyrrolidin-1-yl-ethyl)-1H-pyrrolo[3,2-b]pyridin-3-yl]-methanone trihydrochloride], the Ki in data set [1] was 0.277 µM.

Regarding `COCCn1cc(C(=O)N2CCC(c3cccc(CN)c3)CC2)c2ccncc21` [Example 8, [4-(3-Aminomethyl-phenyl)-piperidin-1-yl]-[1-(2-methoxy-ethyl)-1H-pyrrolo[2,3-c]pyridin-3-yl]-methanone dihydrochloride], the Ki in data set [1] is 0.099 µM. Turning to `COCCn1c(C(=O)N2CCC(c3cc(CN)ccc3F)CC2)cc2cnccc21` [Example 4, [4-(5-Aminomethyl-2-fluoro-phenyl)-piperidin-1-yl]-[1-(2-methoxy-ethyl)-1H-pyrrolo[3,2-c]pyridin-2-yl]-methanone hydrochloride], in data set [1], the Ki was 1.1 µM. With `COCCn1cc(C(=O)N2CCC(c3cc(CN)ccc3F)CC2)c2nccc(OC)c21` [Example 15, [4-(5-Aminomethyl-2-fluoro-phenyl)-piperidin-1-yl]-[7-methoxy-1-(2-methoxy-ethyl)-1H-pyrrolo[3,2-b]pyridin-3-yl]-methanone dihydrochloride], in data set [1], the Ki was 0.0099 µM. On the same count and under the same terms, then `COCCn1c(C(=O)N2CCC(c3cc(CN)ccc3F)CC2)cc2cccnc21` [Example 2, [4-(5-Aminomethyl-2-fluoro-phenyl)-piperidin-1-yl]-[1-(2-methoxy-ethyl)-1H-pyrrolo[2,3-b]pyridin-2-yl]-methanone dihydrochloride], with 0.538 µM; and `NCc1ccc(F)c(C2CCN(C(=O)c3cn(CCc4ccccc4)c4cccnc34)CC2)c1` [Example 16, [4-(5-Aminomethyl-2-fluoro-phenyl)-piperidin-1-yl]-(1-phenethyl-1H-pyrrolo[3,2-b]pyridin-3-yl)-methanone dihydrochloride], with 0.0029 µM.

For the molecule `NCc1ccc(F)c(C2CCN(C(=O)c3cn(CCN4CCCCC4)c4cccnc34)CC2)c1` [Example 17, [4-(5-Aminomethyl-2-fluoro-phenyl)-piperidin-1-yl]-[1-(2-piperidin-1-yl-ethyl)-1H-pyrrolo[3,2-b]pyridin-3-yl]-methanone trihydrochloride], the inhibition constant Ki in data set [1] is 0.29 µM. As for `NCc1ccc(F)c(C2CCN(C(=O)c3cc4cccnc4[nH]3)CC2)c1` [Example 1, [4-(5-Aminomethyl-2-fluoro-phenyl)-piperidin-1-yl]-(1H-pyrrolo[2,3-b]pyridin-2-yl)-methanone dihydrochloride], in data set [1], the Ki is 0.221 µM. As for `NCc1ccc(F)c(C2CCN(C(=O)c3c[nH]c4cnccc34)CC2)c1` [Example 5, [4-(5-Aminomethyl-2-fluoro-phenyl)-piperidin-1-yl]-(1H-pyrrolo[2,3-c]pyridin-3-yl)-methanone dihydrochloride], the inhibition constant (Ki) in data set [1] was 0.22 µM. Take `NCc1ccc(F)c(C2CCN(C(=O)c3c[nH]c4ncccc34)CC2)c1` [Example 19, [4-(5-Aminomethyl-2-fluoro-phenyl)-piperidin-1-yl]-(1H-pyrrolo[2,3-b]pyridin-3-yl)-methanone dihydrochloride]: the Ki in data set [1] was 0.203 µM.
